Measurements as given in article PMC9792171, “Design and synthesis of new thiazolidinone/uracil derivatives as antiproliferative agents targeting EGFR and/or BRAF^V600E” (Frontiers in Chemistry, 2022).

Columns and labels:
[1] = Cell viability assay (MTT), MCF-10A; assay type: cell-based; details: human, MCF-10A mammary gland epithelial cells, MCF-10A cells, incubated 4 days
Experimental: To test the viability of new compounds, the human mammary gland epithelial (MCF-10A) cell line was used ([Youssif et al., 2019]; [Mahmoud et al., 2022]). MCF-10A cells were incubated with compounds 3a-f and 5a-l for 4 days before being tested for viability using the MTT assay.
MTT assay was carried out to study the effect of compounds on mammary epithelial cells (MCF-10A) (Youssif, B. G. M. et al., 2019; Mahmoud, M. A., et al., 2022). The medium in which cells were propagated contained Dulbecco's modified Eagle's medium (DMEM)/ Ham's F-12 medium (1:1) supplemented with epidermal growth factor (20 ng/mL), hydrocortisone (500 ng/mL), insulin (10 μg/mL), 2 mM glutamine and 10% foetal calf serum. After every 2-3 days, the cells were passaged using trypsin ethylenediamine tetra acetic acid (EDTA). The cells were seeded at a density of 10^4 cells mL^-1 in flat-bottomed culture plates containing 96 wells each. After 24 h, medium was removed from the plates and the compounds in (in 0.1% DMSO) were added (in 200 μL medium to yield a final concentration of 0.1% v/v) to the wells of plates. A single compound was designated with four wells followed by incubation of plates for 96h at 37°C. After incubation, medium was removed completely from the plates followed by addition of MTT (0.4 mg/mL in medium) to each well and subsequent incubation of plates for 3h. MTT (along with the medium) was removed and DMSO (150μL) was added to each well of the culture plates, followed by vortexing and subsequent measurement of absorbance (at 540 nm) using microplate reader. The data are shown as percentage inhibition of proliferation in comparison with controls containing 0.1% DMSO.

[2] = system: A-549 (epithelial cancer cell line); test: Antiproliferative MTT assay, A-549; assay type: cell-based; details: Homo sapiens, A549; A-549, MTT; read-out: Antiproliferative activity IC50 ± SEM (nM) A-549
Experimental: (§1) Using the MTT assay ([Abdelrahman et al., 2017]; [El-Sherief et al., 2018]) and doxorubicin as the reference drug, 3a-f and 5a-l were tested for antiproliferative activity against four human cancer cell lines: Panc-1 (pancreas cancer cell line), MCF-7 (breast cancer cell line), HT-29 (colon cancer cell line), and A-549 (epithelial cancer cell line).
(§2) To explore the antiproliferative potential of compounds MTT assay was performed according to previously reported procedure (El-Sherief, H.A.M., et al., 2018; Abdelrahman, M. H., et al., 2017) using different cell lines to explore the antiproliferative potential of compounds propidium iodide fluorescence assay was performed using different cell lines. To calculate the total nuclear DNA, a fluorescent dye (propidium iodide, PI) is used which can attach to the DNA, thus offering a quick and precise technique. PI cannot pass through the cell membrane and its signal intensity can be considered as directly proportional to quantity of cellular DNA. Cells whose cell membranes are damaged or have changed permeability are counted as dead ones. The assay was performed by seeding the cells of different cell lines at a density of 3000-7500 cells/well (in 200µl medium) in culture plates followed by incubation for 24h at 37 °C in humidified 5% CO2/95% air atmospheric conditions. The medium was removed; the compounds were added to the plates at 10 µM concentrations (in 0.1% DMSO) in triplicates, followed by incubation for 48 h. DMSO (0.1%) was used as control. After incubation, medium was removed followed by the addition of PI (25 µl, 50µg/mL in water/medium) to each well of the plates. At -80 °C, the plates were allowed to freeze for 24 h, followed by thawing at 25 °C. A fluorometer (Polar-Star BMG Tech) was used to record the readings at excitation and emission wavelengths of 530 and 620 nm for each well. The percentage cytotoxicity of compounds was calculated using the following formula: […]

[3] = system: four human cancer cell lines (A-549, MCF-7, Panc-1, HT-29); test: Antiproliferative MTT assay, average of four cancer cell lines (GI50); assay type: cell-based; details: for IC50: Homo sapiens, average of A-549, MCF-7, Panc-1, HT-29
Experimental: as §1, with “line). […]” for “line).”
as §2

EGFR = target: T1, EGFR (Homo sapiens, UniProt P00533); test: EGFR inhibitory assay (EGFR-TK, DELFIA/time-resolved fluorometry); assay type: biochemical; details: for IC50: read-out: EGFR inhibition IC50 ± SEM
T1 construct: EGFR cytoplasmic domain (EGFR-CD, amino acids 645–1186); His6 (N); made in house; host or cells: Sf-9 insect cells (baculovirus; pBlueBacHis2B and pFASTBacHTc)
T1 sequence (P00533 669-1210): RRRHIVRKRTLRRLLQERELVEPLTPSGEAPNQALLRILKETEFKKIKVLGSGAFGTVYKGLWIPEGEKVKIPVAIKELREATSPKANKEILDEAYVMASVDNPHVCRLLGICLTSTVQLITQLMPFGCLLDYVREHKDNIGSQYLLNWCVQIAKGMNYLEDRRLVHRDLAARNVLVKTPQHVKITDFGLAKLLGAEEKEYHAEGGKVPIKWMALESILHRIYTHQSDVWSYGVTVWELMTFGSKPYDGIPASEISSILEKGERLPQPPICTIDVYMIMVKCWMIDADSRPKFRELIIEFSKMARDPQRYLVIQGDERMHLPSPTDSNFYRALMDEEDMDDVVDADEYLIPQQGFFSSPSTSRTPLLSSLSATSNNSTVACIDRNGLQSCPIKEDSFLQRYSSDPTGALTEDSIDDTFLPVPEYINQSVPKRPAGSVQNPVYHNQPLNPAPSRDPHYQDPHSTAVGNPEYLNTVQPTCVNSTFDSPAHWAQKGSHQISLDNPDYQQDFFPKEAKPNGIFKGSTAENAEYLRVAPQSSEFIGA
Experimental: 5ʹ upstream to the EGFR sequence comprised a sequence that encoded (His)6. Sf-9 cells were infected for 72h for protein expression. The pellets of Sf-9 cells were solubilized in a buffer containing sodium vanadate (100 µM), aprotinin (10 µg/mL), triton (1%), HEPES buffer (50mM), ammonium molybdate (10 µM), benzamidine HCl (16 µg/mL), NaCl (10 mM), leupeptin (10 µg/mL) and pepstatin (10 µg/mL) at 0°C for 20 min at pH 7.4, followed by centrifugation for 20 min. To eliminate the non-specifically bound material, a Ni-NTA super flow packed column was used to pass through and wash the crude extract supernatant first with 10 mM and then with 100 mM imidazole. Histidine-linked proteins were first eluted with 250 and then with 500 mM imidazole after dialysis against NaCl (50 mM), HEPES (20 mM), glycerol (10%) and 1 µg/mL each of aprotinin, leupeptin and pepstatin for 120 min. The purification was performed either at 4 °C or on ice. To record autophosphorylation level, EGFR kinase assay was carried out based on DELFIA/Time-Resolved Fluorometry. The compounds were first dissolved in DMSO absolute, after dilution to appropriate concentration using HEPES (25 mM) at pH 7.4. Each compound (10 µL) was incubated with recombinant enzyme (10 µL, 5 ng for EGFR, 1:80 dilution in 100 mM HEPES) for 10 min at 25 °C, after the addition of 5X buffer (10 µL, containing 2 mM MnCl2, 100 µM Na3VO4, 20 mM HEPES and 1 mM DTT) and ATP-MgCl2 (20 µL, containing 0.1 mM ATP and 50 mM MgCl2) and incubation for 1h. The negative and positive controls were included in each plate by the incubation of enzyme either with or without ATP-MgCl2. The liquid was removed after incubation and the plates were washed thrice using wash buffer. Europium-tagged antiphosphotyrosine antibody (75 µL, 400 ng) was added to each well followed by incubation of 1h and then washing of the plates using buffer. The enhancement solution was added to each well and the signal was recorded at excitation and emission wavelengths of 340 at 615 nm. The autophosphorylation percentage inhibition by compounds was calculated using the following equation: […]

| SMILES | viability at 4 days, 50 µM [1] | IC50 [2] | IC50 [3] | fold less potent than erlotinib (EGFR IC50) (EGFR; ratio of EGFR IC50 values) | IC50 (EGFR) | fold less potent than compound 5j (GI50) ([3]; ratio of GI50 values) |
| --- | --- | --- | --- | --- | --- | --- |
| COc1cccc(NC(=S)Nc2c[nH]c(=O)[nH]c2=O)c1 [Compound 3c, 1-(2,4-Dioxo-1,2,3,4-tetrahydropyrimidin-5-yl)-3-(3-methoxyphenyl)thiourea] | 89% | 1800 ± 200 nM | 1850 nM | 1.6 fold | 0.125 ± 0.011 µM |  |
| CCOC(=O)/C=C1\S/C(=N\c2c[nH]c(=O)[nH]c2=O)N(c2ccc(C)cc2)C1=O [Compound 5b, (Z)-Ethyl-2-((Z)-2-((2,4-dioxo-1,2,3,4-tetrahydropyrimidin-5-yl)imino)-4-oxo-3-(p-tolyl)thiazolidin-5-ylidene)acetate] | 92% | 1200 ± 100 nM | 1300 nM |  | 0.091 ± 0.007 µM | 1.2 fold |
| CCOC(=O)/C=C1\S/C(=N\c2c[nH]c(=O)[nH]c2=O)N(c2cccc(OC)c2)C1=O [Compound 5c, (Z)-Ethyl-2-((Z)-2-((2,4-dioxo-1,2,3,4-tetrahydropyrimidin-5-yl)imino)-3-(3-methoxyphenyl)-4-oxo-thiazolidin-5-ylidene)acetate] | 96% | 1500 ± 100 nM | 1700 nM |  | 0.115 ± 0.01 µM |  |
| COC(=O)/C=C1\S/C(=N\c2c[nH]c(=O)[nH]c2=O)N(c2ccc(C)cc2)C1=O [Compound 5h, (Z)-Methyl-2-((Z)-2-((2,4-dioxo-1,2,3,4-tetrahydropyrimidin-5-yl)imino)-4-oxo-3-(p-tolyl)-thiazolidin-5-ylidene)acetate] | 92% | 1400 ± 100 nM | 1650 nM |  | 0.112 ± 0.01 µM |  |
| COC(=O)/C=C1\S/C(=N\c2c[nH]c(=O)[nH]c2=O)N(c2cccc(OC)c2)C1=O [Compound 5i, (Z)-Methyl-2-((Z)-2-((2,4-dioxo-1,2,3,4-tetrahydropyrimidin-5-yl)imino)-3-(3-methoxyphenyl)-4-oxothiazolidin-5-ylidene)acetate] | 89% | 1300 ± 100 nM | 1350 nM |  | 0.096 ± 0.007 µM |  |
| COC(=O)/C=C1\S/C(=N\c2c[nH]c(=O)[nH]c2=O)N(Cc2ccccc2)C1=O [Compound 5j, (Z)-Methyl-2-((Z)-3-benzyl-2-((2,4-dioxo-1,2,3,4-tetrahydropyrimidin-5-yl)imino)-4-oxothiazolidin-5-ylidene)acetate] | 89% | 1100 ± 100 nM | 1100 nM |  | 0.087 ± 0.005 µM |  |
